Test results as given in patent publication US10780074B2, “Compounds and uses thereof” (Sunovion Pharmaceuticals Inc., priority 2017, dated 2020).
Structures can show the parent of a compound that is named as a salt.

Test system: behaviors of compound-treated mice
Assay: Neuropharmacological Assay (SmartCube)
Format: in vivo
Settings: for minimal effective dose: Mus musculus, ip, 0.25 h, dose having 50% or more total activity in SmartCube, i.p., read-out: MED (minimal effective dose); for AD: ADHD (probability that activity matches class) / AG: analgesic (probability that activity matches class) / AX: anxiolytic (probability that activity matches class) / CE: cognitive enhancer (probability that activity matches class) / DP: anti-depressant (probability that activity matches class) / MS: mood stabilizer (probability that activity matches class) / PS: anti-psychotic (probability that activity matches class) / SD: sedative hypnotic (probability that activity matches class) / UN: uncharacterized CNS activity (probability that activity matches class): i.p. 15 min before behavioral test, most efficacious dose(s) of 3 doses
Outline: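 Mice dosed i.p. 15 min before testing, with compound in N-methyl-2-pyrrolidone/PEG/propylene glycol, were video-recorded and algorithmically compared with reference-drug behavioral signatures. This gave class-match probabilities (antidepressant, anxiolytic, etc.) at the most efficacious of 3 doses. MED was defined as the dose with ≥50% total activity, usually tested across 0.3–30 mpk.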

SMILES | minimal effective dose [mg/kg] | AD: ADHD (probability that activity matches class) | AG: analgesic (probability that activity matches class) | AX: anxiolytic (probability that activity matches class) | CE: cognitive enhancer (probability that activity matches class) | DP: anti-depressant (probability that activity matches class) | MS: mood stabilizer (probability that activity matches class) | PS: anti-psychotic (probability that activity matches class) | SD: sedative hypnotic (probability that activity matches class) | UN: uncharacterized CNS activity (probability that activity matches class)
CNC[C@H]1OCCc2c(-c3ccccn3)cccc21 (single isomer, unassigned) [Compound 44, hydrochloride salt] | ≤ 3 | + (LOQ ≤ + <5%) | ++ (5% ≤ ++ <25%) | ++ (5% ≤ ++ <25%) | + (LOQ ≤ + <5%) | ++++ (50% ≤ ++++) | + (LOQ ≤ + <5%) | + (LOQ ≤ + <5%) | + (LOQ ≤ + <5%) | + (LOQ ≤ + <5%)
CNC[C@@H]1OCCc2c(-c3cn[nH]c3)cccc21 [Compound 118, (R)-1-(5-(1H-pyrazol-4-yl)isochroman-1-yl)-N-methylmethanamine hydrochloride salt] | 10 to 30 | + (LOQ ≤ + <5%) | ++ (5% ≤ ++ <25%) | ++ (5% ≤ ++ <25%) | + (LOQ ≤ + <5%) | ++ (5% ≤ ++ <25%) | + (LOQ ≤ + <5%) | + (LOQ ≤ + <5%) | +++ (25% ≤ +++ <50%) | ++ (5% ≤ ++ <25%)
CNC[C@@H]1OCCCc2c(-c3ccccn3)cccc21 (single isomer, unassigned) [Compound 156, hydrochloride salt] | 10 to 30 | + (LOQ ≤ + <5%) | + (LOQ ≤ + <5%) | + (LOQ ≤ + <5%) | + (LOQ ≤ + <5%) | + (LOQ ≤ + <5%) | + (LOQ ≤ + <5%) | + (LOQ ≤ + <5%) | + (LOQ ≤ + <5%) | + (LOQ ≤ + <5%)
CNC[C@@H]1OCCc2c(-c3ncco3)cccc21 [Compound 104, (R)—N-Methyl-1-(5-(oxazol-2-yl)isochroman-1-yl)methanamine hydrochloride salt] | > 30 | + (LOQ ≤ + <5%) | + (LOQ ≤ + <5%) | ++ (5% ≤ ++ <25%) | + (LOQ ≤ + <5%) | ++ (5% ≤ ++ <25%) | + (LOQ ≤ + <5%) | + (LOQ ≤ + <5%) | + (LOQ ≤ + <5%) | + (LOQ ≤ + <5%)
NC[C@H]1OCCc2c(-c3ccno3)cccc21 (single isomer, unassigned) [Compound 93, hydrochloride salt] | 10 to 30 | + (LOQ ≤ + <5%) | + (LOQ ≤ + <5%) | + (LOQ ≤ + <5%) | + (LOQ ≤ + <5%) | + (LOQ ≤ + <5%) | + (LOQ ≤ + <5%) | + (LOQ ≤ + <5%) | + (LOQ ≤ + <5%) | + (LOQ ≤ + <5%)
CNC[C@H]1OCCc2cc(-c3cccnc3)ccc21 [Compound 6, (S)-N-methyl(6-(pyridin-3-yl)isochroman-1-yl)methanamine bis-hydrochloride] | 10 to 30 | + (LOQ ≤ + <5%) | ++ (5% ≤ ++ <25%) | ++ (5% ≤ ++ <25%) | ++ (5% ≤ ++ <25%) | +++ (25% ≤ +++ <50%) | + (LOQ ≤ + <5%) | ++ (5% ≤ ++ <25%) | + (LOQ ≤ + <5%) | + (LOQ ≤ + <5%)
CNC[C@@H]1OCCc2c(-c3ccnnc3)cccc21 (single isomer, unassigned) [Compound 76, hydrochloride salt] | 3 to 10 | + (LOQ ≤ + <5%) | ++ (5% ≤ ++ <25%) | ++ (5% ≤ ++ <25%) | + (LOQ ≤ + <5%) | + (LOQ ≤ + <5%) | + (LOQ ≤ + <5%) | + (LOQ ≤ + <5%) | + (LOQ ≤ + <5%) | + (LOQ ≤ + <5%)
CCNCC1OCCc2c(-c3ccncc3)cccc21 (stereo not shown) [Compound 51, N-((5-(Pyridin-4-yl)isochroman-1-yl)methyl)ethanamine hydrochloride salt] | 3 to 10 | + (LOQ ≤ + <5%) | + (LOQ ≤ + <5%) | + (LOQ ≤ + <5%) | + (LOQ ≤ + <5%) | ++++ (50% ≤ ++++) | + (LOQ ≤ + <5%) | ++ (5% ≤ ++ <25%) | ++ (5% ≤ ++ <25%) | + (LOQ ≤ + <5%)
NC[C@H]1OCCc2c(-c3c[nH]cn3)cccc21 (single isomer, unassigned) [Compound 113, hydrochloride salt] | 3 to 10 | + (LOQ ≤ + <5%) | ++ (5% ≤ ++ <25%) | ++ (5% ≤ ++ <25%) | + (LOQ ≤ + <5%) | ++ (5% ≤ ++ <25%) | + (LOQ ≤ + <5%) | +++ (25% ≤ +++ <50%) | + (LOQ ≤ + <5%) | +++ (25% ≤ +++ <50%)
CNC[C@H]1OCCCc2c(-c3ccccn3)cccc21 (single isomer, unassigned) [Compound 157, hydrochloride salt] | 10 to 30 | + (LOQ ≤ + <5%) | + (LOQ ≤ + <5%) | ++ (5% ≤ ++ <25%) | + (LOQ ≤ + <5%) | + (LOQ ≤ + <5%) | + (LOQ ≤ + <5%) | + (LOQ ≤ + <5%) | + (LOQ ≤ + <5%) | + (LOQ ≤ + <5%)
